Results published in patent US20220218667A1, “DUAL INHIBITORS OF SOLUBLE EPOXIDE HYDROLASE AND METHODS OF USE THEREOF” (OROX Biosciences, Inc., priority 2019, published 2022).
Where two headings read alike, the source gives them in different places. Marks after values point to notes of the source that are not given here.

What was measured:
[1] = test system: C57B/L6 mice exposed to bleomycin; test: Example 1: prophylactic treatment of mice exposed to bleomycin (IPF model); type: in vivo, mouse; conditions: OX1, OX3, Nintedanib 30 mg/kg QD, Pirfenidone 100 mg/kg BID; for body weight course over 21 days: bleomycin mice, oral gavage day -1 to 20; for neutrophil migration into BALF / number of lymphocytes in BALF / total cell (leukocyte) count in BALF / increased collagen (fibrosis) score, trichrome / mean Ashcroft score (lung histology) / mean score for mixed peribronchiolar/perivascular inflammation: day 21; for neutrophil migration into BALF / number of lymphocytes in BALF / total cell (leukocyte) count in BALF: oral; for increased collagen (fibrosis) score, trichrome / mean Ashcroft score (lung histology) / mean score for mixed peribronchiolar/perivascular inflammation: compared to vehicle (Group 2)
Text: 4-(5-phenyl-3-{3-[3-(4-trifluoromethyl-phenyl)-ureido]-propyl}-pyrazol-1-yl)-benzenesulfonamide (PTUPB) [termed OX1] was compared to Pirfenidone, Nintedanib, and GSK225629415 [termed OX3] for treatment of IPF using an established model for IPF treating, which is prophylactic treatment of mice exposed to the chemotherapeutic agent bleomycin. […] Pirfenidone and Nintedanib are standard of care for the treatment of idiopathic pulmonary fibrosis and served as reference compounds in the experiment.
C57B/L6 mice were used in the experiments. When used, Bleomycin was administered intra-oropharyngeally, 1.5 U/kg, QD per established protocol. The test articles were dosed via oral gavage in 200 μL/day vehicle. The doses and formulations of test articles were selected based on the literature describing the lowest doses capable of eliciting pharmacological action.
Animals were dosed with the test articles (or vehicle) starting at day −1 to day 20. On day 1, daily doses of Bleomycin commenced in all but group 1 (negative control) which received the vehicle. On day 21, all animals were weighed and sacrificed. After lungs and bronco-alveolar lavage fluid (BALF) were harvested, they were prepared according to standard procedures for further analysis and histology. All animals were assessed twice a week for body weight and overall appearance. Efficacy endpoints measured in this study included lung weight, total leukocytes, and histology as determined by Mason's Trichrome stain and scored using a modified Ashcroft score.
The following parameters were measured in bronchoalveolar fluid (BALF): 1) soluble collagen and 2) differential leukocyte counts for different leukocyte populations.
After weighing and removal of BALF from the lungs, they were inflated and fixed using 10% neutral buffered formalin for histopathology analysis. Fifty-four formalin-fixed lung samples from mice were submitted to HistoTox Labs and were processed routinely. Two slides from each block were sectioned and stained with hematoxylin and eosin (H&E) or Masson's trichrome. Glass slides were evaluated with light microscopy by a board-certified veterinary pathologist. Lung sections were scored according to the modified Ashcroft scale.

[2] = test system: C57BL/6 mice, bleomycin-induced fibrotic lung injury; test: Example 2: therapeutic treatment in bleomycin-induced idiopathic pulmonary fibrosis mouse model; type: in vivo; conditions: OX1 60 mg/kg, Pirfenidone 100 mg/kg
Text: The purpose of this study is to induce fibrotic lung injury in mice via a single administration of a glycopeptide antibiotic, bleomycin, in order to evaluate the efficacy of dual sEH and COX-2 inhibitor OX-1 in treating and reducing the symptoms associated with idiopathic pulmonary fibrosis. Pirfenidone, standard of care for the treatment of idiopathic pulmonary fibrosis, was used as a reference compound.
Male C57BL/6 mice from Charles River Laboratories aging of 7-8 weeks and weighing around 18-22 g at the time of their enrollment were used in the study.
Doses of OX1 at 60 mg/kg, Pirfenidone at 100 mg/kg, and the disease inducer Bleomycin at 1.5 mg/kg were used. A dosing rate of 10 mL/kg (approximately 0.2 mL/mouse according to their body weight) of OX1 was administered orally once daily to the mice. The mice received OX1 at 60 mg/kg once daily. A dosing rate of 10 mL/kg (approximately 0.2 mL/mouse according to their body weight) of Pirfenidone solution was administered once daily to the mice of the groups receiving Pirfenidone orally at the dose of 100 mg/kg once daily. A single intratracheal instillation of approximately 50 μL (1.5 mg/kg with a dosing rate of 2.5 mL/kg in sterile 0.9% saline) of bleomycin solution was administered to all mice except the sham group on day 0. Animals in the Sham group received one intratracheal instillation of approximately 50 μL of 0.9% saline solution on Day 0 and returned to their respective cages.
Treatment with the vehicle or test articles were initiated and administered starting on day 7 to day 21 as scheduled and described in Table 1 above. All test articles, reference compound and vehicle were administered to animals orally once daily. Food and water were given ad libitum. Daily observations of the behavioral and general health status of the animals were done. Daily body weight was also measured.
Prior to physiological assessment, all mice were introduced to the plethysmograph chamber environment. After the acclimatization period, the functional respiratory parameters were assessed by the whole-body plethysmograph on Day 0 (before bleomycin instillation), 7, 14 and 21 post-bleomycin instillation. Each measurement was performed with a mouse placed alone in an unrestrained whole-body plethysmography chamber (Buxco Electronics Inc.) to measure respiratory functions. The functional respiratory parameters analyzed included; the respiratory rate, the PenH ([…]) and the inspiratory/expiratory time measurements.
On the surgery day (Day 21), the mice were anesthetized, instrumented and arterial blood oxygen saturation (SpO2) was recorded. Blood oxygen saturation was read off of the pulse oximeter (STARR Life Sciences MouseOx Plus system, Oakmont, Pa.) with the probe attached to the right thigh of the animal. The saturation values were measured in percentage (%). At the moment of the sacrifice, the mouse thoracic cavity was open to expose the lungs and all mice were euthanatized by exsanguination. The trachea was then connected to the cannula of a perfusion system. The left lung was clamped while 1.5 mL of cold PBS solution (3×500 μL) was injected by the trachea to perform a bronchoalveolar lavage fluid (BALF) on the right lobe of the lungs and was collected on ice for further analysis. The total cells count with cells differential, the cytokine levels including TNF-α, TGF-β, IL-4, IL-5 and IL-17a, the total protein content as well as the soluble collagen were assessed in the BALF samples. Once collected, 300 μL of the BALF was transferred in an EDTA tube, kept at 2-4° C. and shipped to Biovet Inc. for the total cells count with cells differential analysis. The remaining BALF sample was centrifuged at 1200 rpm for 10 minutes at 4° C. to remove cells. The supernatant was aliquots and frozen at−80° C. until analysis was performed. […]

[3] = test system: Human primary lung fibroblasts from IPF donors; test: Fibroblast-to-Myofibroblast Transition (FMT) assay; type: cell-based; conditions: for IC50: Homo sapiens, Primary lung fibroblast, 1.25 ng/ml TGF-b1
Method: OX1 was evaluated in a primary cell-based Fibroblast-to-Myofibroblast Transition (FMT) assay; an in vitro assay relevant to idiopathic pulmonary fibrosis (TPF). Human primary lung fibroblasts from three (3) IPF donors (IPF06, IPF07, and IPF08) were triggered using 1.25 ng/ml TGF-b1 to induce FMT, one hour after application of compounds. OX1 and Nintedanib (approved drug for TPF) were applied in […] in semi-log dilutions with the top concentration at […] to construct eight (8)-point concentration response curve (CRC) in biological duplicates (ie. on two (2) different cell plates at on (1) occasion). SB525334 was used at […] in 0.1% DMSO as a positive validation control. The readouts at 72 hours were high content analysis (HCA) for aSMA expression and DAPI staining for nuclear count as measurement of potential cytotoxic effects.

[4] = lung histopathology day 21, mean
[5] = mean, BLM mice, oral once daily day 7 to 21

## Cc1ccc(=O)n(-c2ccccc2)c1 [Pirfenidone]
[1]
  body weight course over 21 days: sustained weight loss
  neutrophil migration into BALF: did not exhibit any effects
  number of lymphocytes in BALF: trend increasingly lower
  total cell (leukocyte) count in BALF: did not demonstrate the same level of reduction
  increased collagen (fibrosis) score, trichrome: slightly lower
  mean Ashcroft score (lung histology): slightly lower
  mean score for mixed peribronchiolar/perivascular inflammation: similar
[2]; BALF day 21, mean
  Eosinophils (cells): 874 cells
  Lymphocytes (cells): 174517 cells
  Macrophages (cells): 204110 cells
  Neutrophils (cells): 6999 cells
  Soluble collagen: 197.82 µg
  Total BALF cytokines (pg) IL-4: 0.00 pg
  Total BALF cytokines (pg) IL-5: 2.17 pg
  Total BALF cytokines (pg) IL-6: 11.98 pg
  Total BALF cytokines (pg) IL-17: 0.00 pg
  Total BALF cytokines (pg) IP-10: 15.24 pg
  Total BALF cytokines (pg) LIF: 24.67 pg
  Total BALF cytokines (pg) MIG: 8.58 pg
  Total BALF cytokines (pg) TNFa: 0.00 pg
  Total TGFβ: 472.64 pg
  Total cell counts (cells): 386500 cells
[2]; BLM mice, oral once daily day 7 to 21
  Percent Survival (%): 91.70%
[2]; [4]
  Ashcroft score: 3.5 ††
  Collagen content (%): 5.91%
  Pulmonary foci (%): 7.46%
[2]; [5]
  Body weight changes from day 0 (%): 2.47%
  Body weight changes from day 7 (%): 6.49%

## COC(=O)c1ccc2c(c1)NC(=O)/C2=C(\Nc1ccc(N(C)C(=O)CN2CCN(C)CC2)cc1)c1ccccc1 [Nintedanib]
[1]
  body weight course over 21 days: sustained weight loss
  neutrophil migration into BALF: effective
  number of lymphocytes in BALF: trend increasingly lower
  total cell (leukocyte) count in BALF: largest reduction
  increased collagen (fibrosis) score, trichrome: the highest
  mean Ashcroft score (lung histology): the highest
  mean score for mixed peribronchiolar/perivascular inflammation: similar
[3]; DAPI staining, nuclear count as measure of potential cytotoxic effects, 72 hours
  Loss of Nuclei: Yes
[3]; donor IPF06, readout at 72 hours, read-out: αSMA inhibition IC50 (μM), Patient Identifier IPF06
  IC50: 0.6 µM
[3]; donor IPF07, readout at 72 hours, read-out: αSMA inhibition IC50 (μM), Patient Identifier IPF07
  IC50: 0.6 µM
[3]; donor IPF08, readout at 72 hours, read-out: αSMA inhibition IC50 (μM), Patient Identifier IPF08
  IC50: 0.4 µM
[3]; mean of three IPF donors, 72 hours, read-out: αSMA inhibition IC50 (μM), Mean
  IC50: 0.5 µM
